Where two headings read alike, the source gives them in different places.

Common to all, as to assay type: cell-based, Escherichia coli
One assay deals with E. coli. As to conditions: E.coli TEM104, Suppl. Figure 5. The method, then: For the analysis of synergy between the peptides and other antibiotics, a checkerboard assay was performed. Based on the MICs of the selected peptides, a checkerboard assay was designed to define their FICIs (Fractional Inhibitory Concentration Index) in combinations against different clinical isolates[53],[54]. Briefly, a total volume of 100 μL of Mueller–Hinton broth was distributed into each well of the 96-well plates. The first compound (peptide) of the combination was serially diluted vertically (128, 64, 32, 16, 8, 4, 2, 0 μg/mL) while the other drug (Beta-lactam or Kanamycin) was diluted horizontally in a 96-well plate (from 3200 to 3 μg/ mL). The total volume of each microtiter well was inoculated with 100 μL of MHB containing 1 × 10^6 CFU/mL bacteria. The plates were incubated at 37 °C for 24 h under aerobic conditions without shaking. Calculation of the FICI is used to analyze the results of the checkerboard assay by estimating the degree of synergistic effect. FICI is calculated as the sum of the individual fractional inhibitory concentrations (FICs) for each drug (where MIC A and MIC B denote the MIC of each drug alone, and MIC AA+B and MIC BA+B denote the concentrations of A and B in the drug combination). FICI = (MIC AA+B/MIC A) + (MIC BA+B/MIC B). With FICI ≤ 0.5, the combination of antibiotics is considered as a synergistic effect, 0.5 < FICI ≤ 1 indicates additivity, FICI > 1 indicates indifference. […]
Supplementary Figure 5: Fraction Inhibitory Concentration Index (FICI) values obtained from checkerboard assays between control peptides 1-4 and penicillin G. The peptide sequences were obtained by introducing proline mutations in TEM3.2 as follows: Pro1 […]
([…]), Pro2 ([…]), Pro3
([…]) and Pro4 ([…]). Each of the five dots […]
per condition indicates an independent experiment of the measurement consisting of 96 datapoints. FICI values below 0.5 indicate synergy (shaded in green). Values between 0.5 and 1.0 indicate additivity (shaded in yellow) and values greater than 1 indicate indifference (shaded in red) between the combined substances. […]

A further assay has as its system E. coli TEM-30. As to conditions: for Interoretation: E. coli TEM-30; for Interpretation: VITEK 2 AST card. The method, then:
(§1) Beta-lactamase clinical samples were collected from University Hospitals Leuven and tested for ESBL production using the disk diffusion method. The beta-lactamase reference isolates were purchased from International Health Management Associates (IHMA). Bacterial strains were cultivated in Mueller–Hinton Broth (MHB, Difco) at 37 °C. Whenever required, growth media were supplemented with appropriate antibiotics to the medium or plates (kanamycin 30 µg/mL, L-arabinose 0.5 mg/mL, and IPTG […]). Escherichia coli BL21 (ThermoFisher Scientific, Belgium) was used for cloning and plasmid amplification. For the selection of antibiotic resistant colonies, E. coli carrying plasmids was grown in LB agar plates supplemented with the relevant antibiotic. Bacterial CFU counting was done on blood agar plates (BD Biosciences, Belgium) or MHA agar plates. Species identification and antibiograms for all clinical isolates were performed using MALDI-Tof and VITEK® 2 automated system (BioMérieux, France).
(§2) Khodaparast et al Supplementary data
(§3) study. […] Abbreviations: S,
(§4) susceptible; I, intermediate; R, resistant.

For a further assay, the system named is E. coli NDM5a. As to the kind of experiment: VITEK 2 AST antimicrobial susceptibility testing. As to conditions: for Interoretation: E. coli NDM5a; for Interpretation: VITEK 2 AST card. The method, then: as §1, §2, §3, §4
The subject of a further assay is E. coli NDM5b. As to the kind of experiment: VITEK 2 AST antimicrobial susceptibility testing. As to conditions: for Interoretation: E. coli NDM5b; for Interpretation: VITEK 2 AST card. The method, then:
as §1, §2, §3, §4

The next assay concerns E. coli SHV1 (APHA). As to the kind of experiment: VITEK 2 AST antimicrobial susceptibility testing. As to conditions: for Interoretation: E. coli SHV154; for Interpretation: VITEK 2 AST card. The method, then: as §1, §2, §3, §4
For the next assay, the system named is E. coli TEM-104. In words: VITEK 2 AST antimicrobial susceptibility testing. To be noted: for Interoretation: E. coli TEM-104; for Interpretation: VITEK 2 AST card. The method, then:
as §1, §2, §3, §4

The subject of the next assay is E. coli TEM-148. In words: VITEK 2 AST antimicrobial susceptibility testing. As to conditions: for Interoretation: E. coli TEM-148; for Interpretation: VITEK 2 AST card. The method, then:
as §1, §2, §3, §4

The test system of the next assay is E. coli TEM-16. As to the kind of experiment: VITEK 2 AST antimicrobial susceptibility testing. To be noted: for Interoretation: E. coli TEM-16; for Interpretation: VITEK 2 AST card. The method, then:
as §1, §2, §3, §4

The next assay relates to E. coli TEM-206. As to the kind of experiment: VITEK 2 AST antimicrobial susceptibility testing. To be noted: for Interoretation: E. coli TEM-206; for Interpretation: VITEK 2 AST card. The method, then:
as §1, §2, §3, §4

With Ac-RPTPFLHNRRPRPTPFLRQRR-NH2 [Pro3], the FICi values in the assay on E. coli (Replicate1), in the assay with E. coli (Replicate2), in the assay with E. coli (Replicate3) and in the assay on E. coli (Replicate4) was 2 throughout.

In the case of `NC[C@H]1O[C@H](O[C@H]2[C@H](O)[C@@H](O[C@H]3O[C@H](CO)[C@@H](O)[C@H](N)[C@H]3O)[C@H](N)C[C@@H]2N)[C@H](N)C[C@@H]1O` [Tobramycin], the Interoretation entry with E. coli TEM-30 is “*R”; in the assay with E. coli NDM5a, “R”; with E. coli NDM5b, “S”; with E. coli SHV1 (APHA), “*R”; with E. coli TEM-104, “S”; with E. coli TEM-148, “S”. For the same molecule, the Interoretation entry in the assay on E. coli TEM-16 and in the assay on E. coli TEM-206 was “S” throughout. In addition, the Interpretation entry in the assay with E. coli TEM-30 is “*R”; in the assay with E. coli NDM5a, “R”; with E. coli NDM5b, “S”; in the assay on E. coli SHV1 (APHA), “*R”; in the assay on E. coli TEM-104, “S”; in the assay on E. coli TEM-148 it was “S”. The Interpretation result in the assay on E. coli TEM-16 is reported as “S”.

With Amoxicillin + clavulanic acid, the Interoretation entry with E. coli TEM-30 is recorded as “*R”; in the assay with E. coli NDM5a, “R”; in the assay with E. coli NDM5b, “R”; in the assay with E. coli SHV1 (APHA), “R”; in the assay with E. coli TEM-104 it was “R”; with E. coli TEM-148, “*R”. Moreover, the Interoretation result in the assay with E. coli TEM-16 and in the assay on E. coli TEM-206 was “*R” each time. Besides, the Interpretation result in the assay on E. coli TEM-30 was “*R”; in the assay on E. coli NDM5a, “R”; in the assay with E. coli NDM5b, “R”; in the assay with E. coli SHV1 (APHA), “R”; in the assay on E. coli TEM-104 it was “R”; in the assay with E. coli TEM-148, “*R”. Besides, the Interpretation entry in the assay with E. coli TEM-16 and with E. coli TEM-206 was “*R” in each case.

Consider `O=C1CN(/N=C/c2ccc([N+](=O)[O-])o2)C(=O)N1` [Nitrofurantoin], for which the Interoretation entry in the assay on E. coli TEM-30 is “S”; with E. coli NDM5a, “R”; in the assay on E. coli NDM5b, “R”; in the assay on E. coli SHV1 (APHA), “S”; in the assay with E. coli TEM-104, “S”; with E. coli TEM-148 it was “S”. The Interoretation result in the assay on E. coli TEM-16 and in the assay on E. coli TEM-206 was “S” in each case. For the same molecule, the Interpretation result with E. coli TEM-30 was “S”; with E. coli NDM5a, “R”; in the assay with E. coli NDM5b, “R”; with E. coli SHV1 (APHA), “S”; with E. coli TEM-104 it was “S”; with E. coli TEM-148, “S”. Also, the Interpretation entry in the assay with E. coli TEM-16 and with E. coli TEM-206 was “S” throughout.

Colistin: the Interoretation entry with E. coli TEM-30, in the assay with E. coli NDM5a, with E. coli NDM5b, in the assay on E. coli SHV1 (APHA), in the assay with E. coli TEM-104 and in the assay on E. coli TEM-148 was “S” each time. Besides, the Interoretation result in the assay with E. coli TEM-16 and in the assay with E. coli TEM-206 was “S” throughout. Further, the Interpretation result with E. coli TEM-30, with E. coli NDM5a, in the assay on E. coli NDM5b, with E. coli SHV1 (APHA), in the assay on E. coli TEM-104 and in the assay on E. coli TEM-148 was “S” in each case. In addition, the Interpretation entry with E. coli TEM-16 and in the assay with E. coli TEM-206 was “S” each time.

Piperacillin / tazobactam: the Interoretation result with E. coli TEM-30 is reported as “*R”; in the assay with E. coli NDM5a it was “R”; in the assay with E. coli NDM5b, “R”; with E. coli SHV1 (APHA), “R”; with E. coli TEM-104 it was “*I”; in the assay with E. coli TEM-148, “*R”. In addition, the Interoretation result in the assay with E. coli TEM-16 and in the assay with E. coli TEM-206 was “*R” each time. Further, the Interpretation result in the assay on E. coli TEM-30 was “*R”; in the assay on E. coli NDM5a it was “R”; in the assay on E. coli NDM5b it was “R”; with E. coli SHV1 (APHA), “R”; with E. coli TEM-104, “*I”; in the assay on E. coli TEM-148, “*R”. Further, the Interpretation result in the assay on E. coli TEM-16 and in the assay on E. coli TEM-206 was “*R” in each case.

Turning to Ac-RLTPFPHNRRPRLTPFPRQRR-NH2 [Pro4], the FICi values with E. coli (Replicate1), with E. coli (Replicate2), in the assay with E. coli (Replicate3) and in the assay on E. coli (Replicate4) was 2 each time.

Turning to Ac-RPTAPLHNRRPRPTAPLRQRR-NH2 [Pro1], the FICi values in the assay on E. coli (Replicate1), with E. coli (Replicate2), in the assay with E. coli (Replicate3) and with E. coli (Replicate4) was 2 each time.

On to Ac-RLPPFLHNRRPRLPPFLRQRR-NH2 [Pro2], for which the FICi values with E. coli (Replicate1) amounted to 0.75; in the assay with E. coli (Replicate2) it was 0.625; with E. coli (Replicate3), 0.67; in the assay with E. coli (Replicate4) it was 0.71.

Take `C[C@@H](O)[C@H]1C(=O)N2C(C(=O)O)=C(S[C@@H]3CN[C@H](C(=O)N(C)C)C3)[C@H](C)[C@H]12` [Meropenem]: the Interoretation result in the assay with E. coli TEM-30 is given as “S”; in the assay with E. coli NDM5a, “R”; with E. coli NDM5b, “I”; with E. coli SHV1 (APHA), “S”; with E. coli TEM-104 it was “S”; with E. coli TEM-148, “S”. The Interoretation result in the assay with E. coli TEM-16 and with E. coli TEM-206 was “S” throughout. The Interpretation result in the assay with E. coli TEM-30 was “S”; with E. coli NDM5a it was “R”; in the assay on E. coli NDM5b, “I”; in the assay on E. coli SHV1 (APHA) it was “S”; in the assay with E. coli TEM-104, “S”; in the assay on E. coli TEM-148 it was “S”. In addition, the Interpretation entry in the assay with E. coli TEM-16 and in the assay with E. coli TEM-206 was “S” throughout.

As for `NCC[C@H](O)C(=O)N[C@@H]1C[C@H](N)[C@@H](O[C@H]2O[C@H](CN)[C@@H](O)[C@H](O)[C@H]2O)[C@H](O)[C@H]1O[C@H]1O[C@H](CO)[C@@H](O)[C@H](N)[C@H]1O` [Amikacin], the Interoretation entry with E. coli TEM-30, in the assay with E. coli NDM5a, in the assay on E. coli NDM5b, in the assay on E. coli SHV1 (APHA), in the assay with E. coli TEM-104 and with E. coli TEM-148 was “S” throughout. Also, the Interoretation entry in the assay on E. coli TEM-16 and in the assay with E. coli TEM-206 was “S” in each case. The Interpretation entry in the assay on E. coli TEM-30, with E. coli NDM5a, with E. coli NDM5b, in the assay on E. coli SHV1 (APHA), in the assay with E. coli TEM-104 and with E. coli TEM-148 was “S” throughout. In addition, in the assay with E. coli TEM-16, the Interpretation result is listed as “S”.
